The source of these data is patent US20110289632A1, “METHYLKETONE SYNTHASE, PRODUCTION OF METHYLKETONES IN PLANTS AND BACTERIA” (The Regents of the University of Michigan, priority 2009, published 2011).

One data set deals with E. coli cells. The data set is described as follows: GC-MS of methylketones in spent media of E. coli cells expressing ShMKS1, ShMKS2 or ShMKS2 (D79A). Type of data set: cell-based, Escherichia coli. The procedure: To test if expression of either ShMKS1 or ShMKS2 (without its transit peptide) in E. coli results in the formation of 3-ketoacids, we collected spent media of bacterial cells expressing each of them (by centrifuging out the cells at the end of the incubation period), heated the spent media at 75° C. for 30 min in the presence of 1 M sulfuric acid, extracted with hexane, then injected the hexane fraction in a GC-MS. […] On the other hand, the spent medium of E. coli cells expressing ShMKS2 contained 5.6±0.32 μg/μL of total methylketones, and the amount of methylketones increased […], to 40.7±2.1 μg/μL, after the spent medium was treated with acid and heat (FIG. 17).
The coding regions of ShMKS1 and ShMKS2 (minus the transit peptide-encoding region) were each amplified by PCR and inserted into the E. coli expression vector pEXP-TOPO-CT (Invitrogen). The expression vectors were introduced into E. coli BL21 Star (DE3) cells, and gene expression was induced by the addition of 0.5 mM IPTG after the culture optical density at 600 nm had reached 0.65. After induction with IPTG and growth at 18° C. overnight, the cells expressing ShMKS1 or ShMKS2 were centrifuged at 5000 rpm for 15 minutes, and 1-mL aliquots of the spent medium were placed in individual vials for further analysis.
Aliquots (1 mL) of the spent medium of E. coli expressing ShMKS2, obtained by centrifuging the culture solution after the incubation time at 5,000 rpm for 15 min and collecting the solution without the cells, were treated in the following ways: 1. Incubated with 40 μl (3 μg) of purified MKS1 in phosphate buffer (12.5 mM NaH2PO4, 125 mM NaCl, 2 mM DTT, pH 6.8) for 2 hrs at 30° C. 3. Incubated at 75° C. for 30 min followed by 30 min at 30° C. 4. Incubated with 1 mL of 2M H2SO4 at 75° C. for 30 min followed by 30 min at 30° C. After the various treatments, 1 mL of hexane containing 5 ng/μL linalool as an internal standard was added and the resulting mixture was vortexed and centrifuged at 5000 rpm for 10 min. Two μL of the resulting extract were injected into the GC-MS for determination of methylketones. GC-MS and product analysis were performed as described by Ben-Israel et al, (2009) Multiple biochemical and morphological factors underlie the production of methylketones in tomato trichomes, Plant Physiology 151: 1952-1964.

A further data set has as its system E. coli BL21 cells. The data set is described as follows: Headspace SPME GC-MS of E. coli cultures expressing ShMKS2 or SlMKS2. The data set is classed as cell-based, Escherichia coli. The following applies: IPTG induction, overnight growth. The procedure: To investigate the biochemical activity of MKS2, the full ORFs of the wild-species allele (ShMKS2) and the cultivated allele (SlMKS2) were amplified and ligated into an E. coli expression vector (see Examples, Materials and Methods). These vectors were introduced into E. coli BL21cells and ShMKS2 or SlMKS2 expression was induced by the addition of IPTG (see Examples, Materials and Methods). After induction and overnight growth, the culture was analyzed by solid-phase microextraction (SPME) of its headspace followed by gas chromatography-mass spectrometry (GC-MS; see Examples, Materials and Methods). The major compound in the headspace of the E. coli cells expressing ShMKS2 was identified as 2TD (FIG. 8A). Lower amounts of 2UD and 2-pentadecanone were also detected, as well as the reduced alcohol forms of 2UD and 2TD (i.e., 2-undecanol and 2-tridecanol). […] The headspace also contained 2-nonanol and 2-undecanol (FIG. 8B). However, the major headspace compound produced by SlMKS2-expressing cells eluted slightly later than 2TD (peak labeled “1” in FIG. 8B, and also present at lower levels in the chromatograph in FIG. 8A).
The sequence of these cDNAs was verified and transferred into the E. coli expression vector pHis9GW following Auldridge et al. (submitted). The pHis9GW vectors carrying ShMKS2 or SlMKS2 were mobilized into E. coli […] cells, and gene expression was induced by the addition of 2 mM IPTG after the culture OD595 value had reached 0.6-0.7. After IPTG addition, ShMKS2- and SlMKS2-expressing bacterial cells were grown at 30° C. or 18° C. overnight.
After induction with IPTG and growth overnight, 1 mL of culture was placed in a glass vial at 42° C. The vial was capped with a screw cap in which a small hole had been bored. The needle of a SPME device was inserted into the vial through the hole in the cap and the fiber extended for 30 min. for volatile collection, after which the fiber was withdrawn and then injected into the GC. […]

A short description of data set [1]: In vitro decarboxylase activity assay. The data set is classed as biochemical. The following applies: substrate 3-ketomyristic acid. The procedure: To examine the possible decarboxylase activity of ShMKS1 as well as ShMKS2 in vitro, we tested homogenous recombinant ShMKS1 and partially purified recombinant ShMKS2 proteins (without their transit peptides) for their ability to convert 3-ketomyristic acid into its 2-tridecanone decarboxylated product. […] In steady-state kinetic assays, ShMKS1 was determined to have a KM of 18.4±5.6 μM for 3-ketomyristic acid, with an apparent kcat of 227.9±24.1 min^−1.
A typical decarboxylase assay consisted of a 500 μL reaction solution containing ShMKS1 or ShMKS2 (2.5 μg), 3-ketomyristic acid (0.1 mM), and 1,3-bis(tris(hydroxymethyl)methylamino) propane—Na^+ (20 mM, pH 7.0). For measuring kinetic parameters, substrate concentrations ranged from 5 μM to 75 μM. Assays were performed at 23° C. for 10 min after addition of protein. […] Reaction products (5 μL) were analyzed by a modified procedure, as described in O'Maille et al (2004) A single-vial analytical and quantitative gas chromatography-mass spectrometry assay for terpene synthases. […] Product quantification was performed using total ion monitoring (TIM) mode where all ions in the mass spectrum contribute to the measured response. […] 2-Tridecanone was quantified by integration of peak areas using Enhanced Chemstation (version B.01.00, Agilent Technologies). […]

A further data set relates to 3-ketomyristoyl-ACP. The data set is described as follows: In vitro thioesterase activity assay. The data set is classed as biochemical. The following applies: 2.5 μg protein, 30 min at 23° C., then acid and heat. The procedure:
To examine the potential thioesterase activity of ShMKS1 and ShMKS2 in vitro, we added 2.5 μg of each protein to a 500 μL solution of freshly prepared 3-ketomyristoyl-ACP. This protein-linked substrate was prepared using a sequential in vitro enzymatic system involving the addition of multiple starting materials and enzymes and the reaction allowed to proceed for 5 hr (see Examples, Materials, and Methods). Due to the highly unstable nature of 3-ketomyristoyl-ACP, this compound was not further purified but instead the solution in which it was synthesized was used as the “substrate solution” for qualitative in vitro thioesterase activity assays.
Aliquots of this substrate solution were incubated with buffer, ShMKS1, ShMKS2, or both ShMKS1 and ShMKS2 for 30 min at 23° C. […]
3-Ketomyristoyl-ACP was synthesized in a 500 μL reaction volume containing 1,3-bis(tris(hydroxymethyl)methylamino) propane (20 mM, pH 7.0), malonyl-CoA (0.2 mM), lauroyl-CoA (0.2 mM), ShACP (0.1 mM), EcFabD (10 μg) and MtFabH (10 μg). […] Hexane extracts were analyzed by GC-MS as described above. The values for heat-treated samples shown in FIG. 20 were corrected for loss of methylketones during the heating step, as determined by comparisons with standards.

The mark [2] stands for this setting: combined heat and acid treatment.
[3] abbreviates: heated at 75° C. for 30 min, no sulfuric acid.

For “ShMKS2: methylketone synthase 2 from Solanum habrochaites glabratum (SEQ ID NO: 4 / 25); thioesterase hydrolyzing 3-ketoacyl-ACPs”, the “increase of amount of methylketones after acid and heat treatment” value in the data set with E. coli cells (acid and heat treated vs untreated spent medium) was determined as 8 fold. Also, in the data set on E. coli cells (after spent medium was treated with acid and heat (1 M sulfuric acid, 75° C., 30 min)), the “total methylketones in spent medium” value came out at 40.7 ± 2.1 µg/µL. In the data set on E. coli cells (setting [2]), the “2-nonanone in spent medium” value was 0.95 ± 0.04 µg/µL; the “2-nonanone, fold over non-treated control” value is given as 19.1 fold; the “2-pentadecenone in spent medium” value is 5.69 ± 0.21 µg/µL; the “2-pentadecenone, fold over non-treated control” value amounted to 4.4 fold. In the data set with E. coli cells (setting [2]), the “2-tridecanone in spent medium” value was 11.99 ± 0.51 µg/µL; the “2-tridecanone, fold over non-treated control” value came out at 4.6 fold; the “2-tridecenone in spent medium” value worked out at 13.04 ± 0.63 µg/µL; the “2-tridecenone, fold over non-treated control” value worked out at 11.8 fold. Besides, in the data set on E. coli cells (setting [2]), the “2-undecanone in spent medium” value amounted to 9.33 ± 0.61 µg/µL and the “2-undecanone, fold over non-treated control” value is given as 18.3 fold. Also, in the data set on E. coli cells (heat only), the “2-nonanone, fold over non-treated control” value worked out at 11.9 fold; the “2-pentadecenone, fold over non-treated control” value is recorded as 3.0 fold; the “2-tridecanone, fold over non-treated control” value is recorded as 3.7 fold; the “2-tridecenone, fold over non-treated control” value was determined as 9 fold. In addition, the “2-undecanone, fold over non-treated control” value with E. coli cells (heat only) came out at 12.2 fold. Moreover, in the data set on E. coli cells (setting [3]), the “2-nonanone in spent medium” value came to 0.60 ± 0.05 µg/µL, the “2-pentadecenone in spent medium” value amounted to 3.94 ± 0.54 µg/µL, the “2-tridecanone in spent medium” value came out at 9.61 ± 0.27 µg/µL and the “2-tridecenone in spent medium” value is 9.94 ± 0.83 µg/µL. The “2-undecanone in spent medium” value with E. coli cells (setting [3]) is 6.22 ± 0.34 µg/µL. In the data set with E. coli cells (untreated spent medium), the “2-nonanone in spent medium” value stood at 0.05 µg/µL, the “2-pentadecenone in spent medium” value is 1.3 µg/µL, the “2-tridecanone in spent medium” value is 2.6 µg/µL and the “2-tridecenone in spent medium” value was determined as 1.1 µg/µL. For the same substance, in the data set with E. coli cells (untreated spent medium), the “2-undecanone in spent medium” value stood at 0.51 µg/µL and the “total methylketones in spent medium” value was 5.6 ± 0.32 µg/µL. In the data set on E. coli BL21 cells, the “major compound in the headspace of E. coli cells expressing the enzyme” value stood at 2TD. For the same substance, the “decarboxylase activity” value in data set [1] is recorded as “no decarboxylase activity”. In the data set on 3-ketomyristoyl-ACP, the “amount of 2-tridecanone formed vs buffer-incubated substrate solution treated with acid and heat” value is given as “approximately 3 fold”.
“SlMKS2: methylketone synthase 2, cultivated tomato S. lycopersicum allele (SEQ ID NO: 3)”: in the data set with E. coli BL21 cells, the “major compound in the headspace of E. coli cells expressing the enzyme” value is on record as 2-tridecenone and the “two main MK in the headspace” value came out at 2UD as well as 2-nonanone.
